Measurements published in patent US6737383B1, “Herbicidal oxadiazolidines” (priority 1999, dated 2004).

Key:
[1] = tested on: bedstraw; test: Test B pre/postemergence bedstraw; format: in vivo, Galium aparine
Summary of the method: (§1)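 Herbicidal effect was estimated by eye on a ten-point control scale after plants spent twelve to sixteen days in a greenhouse following soil or foliar treatment. Foliar sprays targeted plants at one to four leaves; all doses were formulated in a non-phytotoxic solvent with surfactant.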

[2] = tested on: wheat; test: Test B pre/postemergence wheat; format: in vivo, Triticum aestivum; details: for Wheat plant response rating (0 to 10 scale): 0 is no effect
Summary of the method: as §1

[3] = tested on: rice; test: Test B flood test rice; format: in vivo, Oryza sativa; details: for Plant response rating, Rice: Rate 250 g/ha, Postemergence (flood test), scale 0 to 10, 0 is no effect, 10 is complete control
Summary of the method: (§2)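 Flood test on plants grown to the 2-leaf stage; treated plants kept in greenhouse twelve to sixteen days, then visually rated against controls on a 0 (no effect) to 10 (complete control) scale.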

[4] = tested on: duck salad; test: Test B flood test duck salad; format: in vivo, Heteranthera limosa
Summary of the method: as §2

[5] = tested on: Alexandergrass; test: Test D Alexandergrass; format: in vivo, Brachiaria plantaginea; details: Preemergence, 0 to 100 scale
Summary of the method: (§3)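 Values are visual plant-response ratings (0 no injury, 100 complete control) recorded 14 to 21 days after herbicide treatment, using a non-phytotoxic solvent mixture containing surfactant. Preemergence applications went to the surface of pots holding freshly sown seed in sandy loam.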

[6] = tested on: common ragweed; test: Test D common ragweed; format: in vivo, Ambrosia elatior; details: Preemergence, 0 to 100 scale
Summary of the method: as §3

[7] = tested on: dallisgrass; test: Test D dallisgrass; format: in vivo, Paspalum dilatatum; details: Preemergence, 0 to 100 scale
Summary of the method: as §3

[8] = tested on: goosegrass; test: Test D goosegrass; format: in vivo, Eleusine indica; details: Preemergence, 0 to 100 scale
Summary of the method: as §3

[9] = tested on: winter wheat; test: Test E winter wheat; format: in vivo, Triticum aestivum; details: Postemergence
Summary of the method: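 Visual evaluation versus untreated controls after about 21 to 28 days in the greenhouse. Compound was in a surfactant-containing non-phytotoxic solvent; postemergence plants were treated at the 1- to 4-leaf stage, grown in a 60:40 sandy loam and potting mix blend.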

[10] = tested on: blackgrass; test: Test E blackgrass; format: in vivo, Alopecurus myosuroides; details: Preemergence
[11] = tested on: green foxtail; test: Test E green foxtail; format: in vivo, Setaria viridis; details: Preemergence
[12] = tested on: Italian ryegrass; test: Test E Italian ryegrass; format: in vivo, Lolium multiflorum; details: Preemergence
[13] = tested on: winter wheat; test: Test E winter wheat; format: in vivo, Triticum aestivum; details: Preemergence
[14] = tested on: wild oat; test: Test E wild oat; format: in vivo, Avena fatua; details: Preemergence
[15] = tested on: winter barley; test: Test E winter barley; format: in vivo, Hordeum vulgare; details: Preemergence
[16] = Preemergence, Rate 62 g/ha, scale 0 to 10 (0 no effect, 10 complete control)
[17] = Preemergence, Rate 250 g/ha, scale of 0 to 10 where 0 is no effect and 10 is complete control
[18] = Preemergence, Rate 500 g/ha, scale 0 to 10 (0 no effect, 10 complete control)
[19] = Postemergence, Rate 125 g/ha, scale of 0 to 10 where 0 is no effect and 10 is complete control
[20] = Preemergence, Rate 125 g/ha, 10 is complete control
[21] = Rate 62 g/ha, Postemergence, scale of 0 to 10 where 0 is no effect and 10 is complete control
[22] = Rate 250 g/ha, Postemergence, scale 0 to 10, 0 is no effect, 10 is complete control
[23] = Rate 500 g/ha, Postemergence, scale 0 to 10, 0 no effect, 10 complete control
[24] = Postemergence (flood test species), Rate 125 g/ha, scale of 0 to 10 where 0 is no effect and 10 is complete control
[25] = Rate 62 g/ha, Postemergence section, flood test species, scale of 0 to 10 where 0 is no effect and 10 is complete control
[26] = Rate 500 g/ha, listed under Postemergence (flood test species), scale 0 to 10, 0 no effect, 10 complete control
[27] = Rate 16 g/ha, 0 no injury, 100 complete control
[28] = Rate 32 g/ha, 0 no injury, 100 complete control
[29] = Rate 64 g/ha, 0 no injury, 100 complete control
[30] = Rate 62 g/ha, 0 to 100 scale, 0 no effect, 100 complete control
[31] = Rate 125 g/ha, 0 to 100 scale (0 no effect, 100 complete control)
[32] = Preemergence, Rate 250 g/ha, scale 0 to 10, 0 is no effect, 10 is complete control
[33] = Rate 31 g/ha, Postemergence section (flood test species), scale 0 to 10
[34] = Rate 125 g/ha, 0 no injury, 100 complete control

CC(C)N(C(=O)n1oc(=O)n(C2CCCCC2)c1=O)c1ccccc1 [Compound 112]
Bedstraw plant response rating ([1]; Postemergence, Rate 62 g/ha, scale 0 to 10, 0 is no effect, 10 is complete control): 0
Bedstraw plant response rating ([1]; Postemergence, Rate 250 g/ha, scale 0 to 10, 0 no effect, 10 complete control): 7
Bedstraw plant response rating [1, 16]: 0
Plant response rating, Bedstraw ([1]; Preemergence, Rate 125 g/ha, scale 0 to 10 (0 no effect, 10 complete control)): 0
Plant response rating, Bedstraw [1, 17]: 0
Bedstraw plant response rating [1, 18]: 0
Bedstraw plant response rating ([1]; Rate 125 g/ha, Postemergence, scale 0 to 10, 0 no effect, 10 complete control): 0
Wheat plant response rating [2, 19]: 0
Wheat plant response rating [2, 16]: 0
Wheat plant response rating (0 to 10 scale) [2, 20]: 0
Plant response rating, Wheat [2, 17]: 0
Wheat plant response rating [2, 18]: 0
Wheat plant response rating [2, 21]: 0
Plant response rating, Wheat [2, 22]: 0
Wheat plant response rating [2, 23]: 0
Rice plant response rating [3, 24]: 0
Rice plant response rating [3, 25]: 0
Plant response rating, Rice [3]: 0
Rice plant response rating [3, 26]: 0
Ducksalad plant response rating [4, 24]: 0
Ducksalad plant response rating [4, 25]: 0
Ducksalad plant response rating [4, 26]: 0
Ducksalad plant response rating ([4]; flood test, listed under Postemergence, Rate 250 g/ha, scale 0 to 10, 0 no effect, 10 complete control): 0
Plant response rating, Alexandergrass [5, 27]: 0
Plant response rating, Alexandergrass [5, 28]: 0
Plant response rating, Alexandergrass [5, 29]: 0
Plant response rating, Alexandergrass ([5]; Rate 250 g/ha): 80
Plant response rating, Alexandergrass ([5]; Rate 500 g/ha): 100
Plant response rating, C. ragweed [6, 27]: 0
Plant response rating, C. ragweed [6, 28]: 0
Plant response rating, C. ragweed [6, 29]: 0
Plant response rating, C. ragweed ([6]; Rate 250 g/ha): 0
Plant response rating, C. ragweed ([6]; Rate 500 g/ha): 0
Plant response rating, Dallisgrass [7, 27]: 30
Plant response rating, Dallisgrass [7, 28]: 65
Plant response rating, Dallisgrass [7, 29]: 70
Plant response rating, Dallisgrass ([7]; Rate 250 g/ha): 100
Plant response rating, Dallisgrass ([7]; Rate 500 g/ha): 100
Plant response rating, Goosegrass [8, 27]: 40
Plant response rating, Goosegrass [8, 28]: 40
Plant response rating, Goosegrass [8, 29]: 85
Plant response rating, Goosegrass ([8]; Rate 250 g/ha): 100
Plant response rating, Goosegrass ([8]; Rate 500 g/ha): 100
Plant response rating, Wheat (winter) ([9]; Rate 62 g/ha, 0 to 100 scale): 0
Plant response rating, Wheat (winter) ([9]; Rate 125 g/ha, 0 to 100 scale): 0
Plant response rating, Wheat (winter) ([9]; Rate 250 g/ha, 0 to 100 scale (0 no effect, 100 complete control)): 10
Plant response rating, Blackgrass [10, 30]: 10
Plant response rating, Blackgrass [10, 31]: 20
Plant response rating, Blackgrass ([10]; Rate 250 g/ha, 0 to 100 scale): 50
Plant response rating, Green foxtail [11, 30]: 10
Plant response rating, Green foxtail [11, 31]: 20
Plant response rating, Green foxtail ([11]; Rate 250 g/ha, 0 to 100 scale): 50
Plant response rating, I. Ryegrass [12, 30]: 0
Plant response rating, I. Ryegrass [12, 31]: 0
Plant response rating, I. Ryegrass ([12]; Rate 250 g/ha, 0 to 100 scale): 20
Plant response rating, Wheat (winter) [13, 30]: 0
Plant response rating, Wheat (winter) [13, 31]: 0
Plant response rating, Wheat (winter) ([13]; Rate 250 g/ha, 0 to 100 scale): 0
Plant response rating, Wild oat [14, 30]: 0
Plant response rating, Wild oat [14, 31]: 0
Plant response rating, Barley (winter) [15, 30]: 0
Plant response rating, Barley (winter) [15, 31]: 10
Plant response rating, Barley (winter) ([15]; Rate 250 g/ha, 0 to 100 scale): 10

CC(C)N(C(=O)n1oc(=O)n(C)c1=O)c1ccc(F)cc1 [Compound 138]
Bedstraw plant response rating [1, 19]: 7
Bedstraw plant response rating [1, 16]: 5
Bedstraw plant response rating (0 to 10 scale) ([1]; Preemergence, Rate 125 g/ha, 0 is no effect, 10 is complete control): 7
Bedstraw plant response rating [1, 32]: 10
Bedstraw plant response rating [1, 18]: 10
Bedstraw plant response rating [1, 21]: 2
Plant response rating, Bedstraw [1, 22]: 8
Bedstraw plant response rating [1, 23]: 9
Wheat plant response rating [2, 19]: 8
Wheat plant response rating [2, 16]: 3
Wheat plant response rating (0 to 10 scale) [2, 20]: 5
Wheat plant response rating [2, 32]: 6
Wheat plant response rating [2, 18]: 9
Wheat plant response rating [2, 21]: 3
Plant response rating, Wheat [2, 22]: 8
Wheat plant response rating ([2]; Rate 500 g/ha, Postemergence, scale 0 to 10): 8
Rice plant response rating [3, 24]: 7
Rice plant response rating [3, 33]: 0
Rice plant response rating [3, 25]: 0
Plant response rating, Rice [3]: 8
Ducksalad plant response rating [4, 24]: 0
Ducksalad plant response rating [4, 33]: 0
Ducksalad plant response rating [4, 25]: 0
Plant response rating, Ducksalad ([4]; Rate 250 g/ha, Postemergence (flood test), scale 0 to 10, 0 is no effect, 10 is complete control): 2
Plant response rating, Alexandergrass [5, 29]: 80
Plant response rating, Alexandergrass [5, 34]: 80
Plant response rating, Alexandergrass ([5]; Rate 250 g/ha): 98
Plant response rating, Alexandergrass ([5]; Rate 500 g/ha): 100
Plant response rating, C. ragweed [6, 29]: 10
Plant response rating, C. ragweed [6, 34]: 30
Plant response rating, C. ragweed ([6]; Rate 250 g/ha): 60
Plant response rating, C. ragweed ([6]; Rate 500 g/ha): 100
Plant response rating, Dallisgrass [7, 29]: 100
Plant response rating, Dallisgrass [7, 34]: 100
Plant response rating, Dallisgrass ([7]; Rate 250 g/ha): 100
Plant response rating, Dallisgrass ([7]; Rate 500 g/ha): 100
Plant response rating, Goosegrass [8, 29]: 98
Plant response rating, Goosegrass [8, 34]: 100
Plant response rating, Goosegrass ([8]; Rate 250 g/ha): 100
Plant response rating, Goosegrass ([8]; Rate 500 g/ha): 100
Plant response rating, Wheat (winter) ([9]; Rate 62 g/ha, 0 to 100 scale): 60
Plant response rating, Wheat (winter) ([9]; Rate 125 g/ha, 0 to 100 scale): 70
Wheat (winter) plant response rating ([9]; Rate 250 g/ha, 0 to 100 scale where 0 is no effect and 100 is complete control): 80
Plant response rating, Blackgrass [10, 30]: 50
Plant response rating, Blackgrass [10, 31]: 60
Blackgrass plant response rating (0 to 100 scale) ([10]; Rate 250 g/ha): 70
Plant response rating, Green foxtail [11, 30]: 60
Plant response rating, Green foxtail [11, 31]: 70
Green foxtail plant response rating (0 to 100 scale) ([11]; Rate 250 g/ha): 75
Plant response rating, I. Ryegrass [12, 30]: 60
Plant response rating, I. Ryegrass [12, 31]: 70
I. Ryegrass plant response rating (0 to 100 scale) ([12]; Rate 250 g/ha): 80
Plant response rating, Wheat (winter) [13, 30]: 60
Plant response rating, Wheat (winter) [13, 31]: 70
Wheat (winter) plant response rating (0 to 100 scale) ([13]; Rate 250 g/ha): 80
Plant response rating, Wild oat [14, 30]: 50
Plant response rating, Wild oat [14, 31]: 60
Wild oat plant response rating (0 to 100 scale) ([14]; Rate 250 g/ha): 65
Plant response rating, Barley (winter) [15, 30]: 30
Plant response rating, Barley (winter) [15, 31]: 60
Barley (winter) plant response rating (0 to 100 scale) ([15]; Rate 250 g/ha): 90
